Experimental findings from patent US8906953B2, “Pyrrolidine substitute flavones for the treatment of inflammatory disorders” (Piramal Enterprises Limited, priority 2010, dated 2014) are described below.

Each structure is given as a SMILES string. pIC50: −log10 of the molar value. Structures can show the parent of a compound that is named as a salt.

What is called pIC50 is the IC50 on a negative log10 scale, so that one unit is a factor of ten.

The first assay concerns TNF-α. As to the kind of experiment: LPS-induced TNF-α release from hPBMCs (ELISA). Format: cell-based. The following applies: Homo sapiens; LPS-stimulated hPBMCs, 5 hours; read-out: Activity (TNF-α) IC50. The procedure: Cytokine production by lipopolysaccharides (LPS) in hPBMCs (human peripheral blood mononuclear cells) was measured as in reference, Physiol. Res. 2003, 52, 593-598, the disclosure of which is incorporated by reference for the teaching of the assay. Blood was collected from healthy donors into Potassium EDTA vacutainer tubes (BID vacutainer). The PBMC were isolated using gradient centrifugation in Histopaque-1077 solution (Sigma). Isolated PBMC were suspended in RPMI 1640 (Rosewell Park Memorial Institute) culture medium (Sigma-Aldrich Fine Chemicals, USA) containing 10% fetal bovine serum (FBS) (JRH, USA), 100 U/mL penicillin (Sigma Chemical Co. St Louis, Mo., USA) and 100 μg/mL streptomycin (Sigma Chemical Co. St Louis, Mo.). The cell concentration was adjusted to 1×10^6 cells/mL. The viability as determined by trypan blue dye exclusion was uniform Ly≧98%. The cell suspension (100 μL) was added to the wells of a 96-well culture plate. Following cell plating, 79 μL of the culture medium and 1 μL of various concentrations of test compounds (compounds of formula 1) (final concentration 0.001, 0.003, 0.005, 0.01, 0.025, 0.03, 0.05, 0.1, 0.25, 0.3 and 1 μM) dissolved in DMSO (dimethyl sulfoxide, Sigma, Mo., USA) were added to the cells. The final concentration of DMSO was adjusted to 0.5%. The vehicle (0.5% DMSO) was used as control. […] The plates were incubated for 30 minutes at 37° C. in an atmosphere of 5% CO2. Finally, 20 μL (10 μg/mL) per well of LPS, (Escherchia coli 0127:B8, Sigma Chemical Co., St. Louis, Mo.) was added to the wells of the incubated plates, for a final concentration of 1 μg/mL. The plates were incubated at 37° C. for 5 hours in an atmosphere of 5% CO2. […] Supernatants were harvested and assayed for TNF-α, IL-1β, IL-6 and IL-8 by ELISA as described by the manufacturer. (OptiEIA ELISA sets, BD Biosciences, Pharmingen). The 50% inhibitory concentration (IC50) values were calculated by a nonlinear regression method using GraphPad software (Prism 3.03).
A general note: ELISA stands for enzyme-linked immunosorbent assay.
As to `CN1CC[C@@H](c2c(O)cc(O)c3c(=O)cc(-c4ccc([N+](=O)[O-])cc4Cl)oc23)[C@@H]1CO` [Compound of example 5, (+)-trans-2-(2-Chloro-4-nitro-phenyl)-5,7-dihydroxy-8-(2-hydroxymethyl-1-methyl-pyrrolidin-3-yl)-chromen-4-one hydrochloride], the pIC50 is 6.40. Consider `CN1CC[C@@H](c2c(O)cc(O)c3c(=O)cc(-c4ccccc4Cl)oc23)[C@@H]1CO` [Compound of example 7, (+)-trans-2-(2-Chloro-phenyl)-5,7-dihydroxy-8-(2-hydroxymethyl-1-methyl-pyrrolidin-3-yl)-chromen-4-one hydrochloride], for which the pIC50 is 6.70. Still for that read-out and setting: in the case of `CN1CC[C@@H](c2c(O)cc(O)c3c(=O)cc(-c4cc(F)ccc4Br)oc23)[C@@H]1CO` [Compound of example 9, (+)-trans-2-(2-Bromo-5-fluoro-phenyl)-5,7-dihydroxy-8-(2-hydroxymethyl-1-methyl-pyrrolidin-3-yl)-chromen-4-one hydrochloride] it was 6.05; in that of `CN1CC[C@@H](c2c(O)cc(O)c3c(=O)cc(-c4ccc(C#N)cc4Cl)oc23)[C@@H]1CO` [Compound of example 12, (+)-trans-2-(2-Chloro-4-cyano-phenyl)-5,7-dihydroxy-8-(2-hydroxymethyl-1-methyl-pyrrolidin-3-yl)-chromen-4-one hydrochloride], 5.82; in that of `CN1CC[C@@H](c2c(O)cc(O)c3c(=O)cc(-c4ccc([N+](=O)[O-])cc4Br)oc23)[C@@H]1CO` [Compound of example 16, (+)-trans-2-(2-Bromo-4-nitro-phenyl)-5,7-dihydroxy-8-(2-hydroxymethyl-1-methyl-pyrrolidin-3-yl)-chromen-4-one hydrochloride], 6.52.

Turning to `CN1CC[C@@H](c2c(O)cc(O)c3c(=O)cc(-c4ccc(Cl)cc4Cl)oc23)[C@@H]1CO` [Compound of example 18, (+)-trans-2-(2,4-Dichloro-phenyl)-5,7-dihydroxy-8-(2-hydroxymethyl-1-methyl-pyrrolidin-3-yl)-chromen-4-one hydrochloride], the pIC50 is 6.52.

For the molecule `CN1CC[C@@H](c2c(O)cc(O)c3c(=O)cc(-c4cc(F)ccc4Cl)oc23)[C@@H]1CO` [Compound of example 20, (+)-trans-2-(2-Chloro-5-fluoro-phenyl)-5,7-dihydroxy-8-(2-hydroxymethyl-1-methyl-pyrrolidin-3-yl)-chromen-4-one hydrochloride], the pIC50 is 6.15. As for `CN1CC[C@@H](c2c(O)cc(O)c3c(=O)cc(-c4cccs4)oc23)[C@@H]1CO` [Compound of example 22, (+)-trans-5,7-Dihydroxy-8-(2-hydroxymethyl-1-methyl-pyrrolidin-3-yl)-2-thiophen-2-yl-chromen-4-one hydrochloride], the pIC50 was 5.64. Turning to `CN1CC[C@@H](c2c(O)cc(O)c3c(=O)cc(-c4cccc([N+](=O)[O-])c4)oc23)[C@@H]1CO` [Compound of example 26, (+)-trans-5,7-dihydroxy-8-(2-hydroxymethyl-1-methyl-pyrrolidin-3-yl)-2-(3-nitrophenyl)-chromen-4-one hydrochloride], the pIC50 is 6.40. With `CN1CC[C@@H](c2c(O)cc(O)c3c(=O)cc(-c4cccc(Br)c4Cl)oc23)[C@@H]1CO` [Compound of example 30, (+)-trans-2-(3-Bromo-2-chloro-phenyl)-5,7-dihydroxy-8-(2-hydroxymethyl-1-methyl-pyrrolidin-3-yl)-chromen-4-one hydrochloride], the pIC50 was 5.39. Still for that read-out and setting: for `CN1CC[C@@H](c2c(O)cc(O)c3c(=O)cc(-c4cccc(Cl)c4)oc23)[C@@H]1CO` [Compound of example 34, (+)-trans-2-(3-Chloro-phenyl)-5,7-dihydroxy-8-(2-hydroxymethyl-1-methyl-pyrrolidin-3-yl)-chromen-4-one hydrochloride] the value was 5.60. As for `CN1CC[C@@H](c2c(O)cc(O)c3c(=O)cc(-c4cccc([N+](=O)[O-])c4Cl)oc23)[C@@H]1CO` [Compound of example 38, (+)-trans-2-(2-Chloro-3-nitro-phenyl)-5,7-dihydroxy-8-(2-hydroxymethyl-1-methyl-pyrrolidin-3-yl)-chromen-4-one hydrochloride], the pIC50 was 5.89. Same read-out and setting: for `CN1CC[C@@H](c2c(O)cc(O)c3c(=O)cc(-c4cccc(C(F)(F)F)c4Cl)oc23)[C@@H]1CO` [Compound of example 42, (+)-trans-2-(2-Chloro-3-trifluoromethyl-phenyl)-5,7-dihydroxy-8-(2-hydroxymethyl-1-methyl-pyrrolidin-3-yl)-chromen-4-one hydrochloride] the value was 5.62. Consider `Cc1cccc(-c2cc(=O)c3c(O)cc(O)c([C@@H]4CCN(C)[C@H]4CO)c3o2)c1Cl` [Compound of example 46, (+)-trans-2-(2-Chloro-3-methyl-phenyl)-5,7-dihydroxy-8-(2-hydroxymethyl-1-methyl-pyrrolidin-3-yl)-chromen-4-one hydrochloride], for which the negative logarithm of the IC50 (pIC50) was 6.30. As for `CN1CC[C@@H](c2c(O)cc(O)c3c(=O)cc(-c4cccc(Cl)c4Cl)oc23)[C@@H]1CO` [Compound of example 58, (+)-trans-2-(2,3-Dichloro-phenyl)-5,7-dihydroxy-8-(2-hydroxymethyl-1-methyl-pyrrolidin-3-yl)-chromen-4-one hydrochloride], the pIC50 is 5.82.

Turning to `CN1CC[C@@H](c2c(O)cc(O)c3c(=O)cc(-c4cccc(I)c4Cl)oc23)[C@@H]1CO` [Compound of example 62, (+)-trans-2-(2-Chloro-3-iodo-phenyl)-5,7-dihydroxy-8-(2-hydroxymethyl-1-methyl-pyrrolidin-3-yl)-chromen-4-one hydrochloride], the pIC50 was 5.89. With `CC(C)Nc1cccc(-c2cc(=O)c3c(O)cc(O)c([C@@H]4CCN(C)[C@H]4CO)c3o2)c1Cl` [Compound of example 66, (+)-trans-2-(2-Chloro-3-isopropylamino-phenyl)-5,7-dihydroxy-8-(2-hydroxymethyl-1-methyl-pyrrolidin-3-yl)-chromen-4-one hydrochloride], the pIC50 was 6.05.

In another assay the test system is PDE4. In words: PDE4 inhibition, cAMP fluorescence assay in salbutamol-stimulated U937 cells. Type of assay: cell-based, human. Conditions: U937 cells, concentration 0.3 μM, salbutamol 1 μM. The procedure:
Culture medium was changed every 2-3 days and always 24 hours before harvest. RPMI medium, FBS and Salbutamol were purchased from Sigma-Aldrich (USA). Rolipram was synthesized in the Medicinal Chemistry Department, Piramal Life Sciences Limited.
Rolipram was used as a standard (0.3, 1 and 3 μM). […] Fluorescence measurements were taken with Polarstar Optima (BMG Labtech-Germany).
Relative fluorescence was calculated using the following formula where: RF=Relative Fluorescence, Fo=fluorescent intensity of the blank or buffer control, F=fluorescence of cAMP or sample: RF=(Fo−F)/Fo
A standard curve was plotted using the RF values of the given standards and the values of cAMP corresponding to the test compounds were determined using the standard plot.
As to `COc1ccc(C2CNC(=O)C2)cc1OC1CCCC1` (centres unmarked) [Rolipram, reference compound], the “Relative Fluorescence (RF)” value was 1.39.

Still in this assay, the particulars now being: U937 cells, concentration 1 μM, salbutamol 1 μM.
On to `COc1ccc(C2CNC(=O)C2)cc1OC1CCCC1` (centres unmarked) [Rolipram, reference compound], for which the “Relative Fluorescence (RF)” value is listed as 1.56.

The assay is the same for the next values; noted with them: U937 cells, concentration 3 μM, salbutamol 1 μM.
For the molecule `COc1ccc(C2CNC(=O)C2)cc1OC1CCCC1` (centres unmarked) [Rolipram, reference compound], the “Relative Fluorescence (RF)” value was 1.73.
